# Results: US8716284B2, “Adamantyl diamide derivatives and uses of same” (H. Lundbeck A/S, priority 2008, dated 2014)
# Target: T1, rat metabotropic glutamate receptor 5 (mGluR5) (Rattus norvegicus, UniProt P31424)
# T1 construct: expressed in transfected cells; host or cells: HEK 293
# Experiment: Calcium mobilization assay (FLIPR) for negative or positive allosteric activity, HEK 293 cells
# Assay type: cell-based
# Settings: HEK293, negative allosteric modulation, inhibition of EC80 glutamate response; read-out: FLIPR maximum inhibition
# Outline: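 Peak Fluo-4 calcium signal over 3 min at room temperature, minus basal, fitted by Hill equation, in stable rat mGluR5 HEK 293 cells (HBSS/HEPES pH 7.4, BSA, probenecid). Inhibition scored against EC80 glutamate, potentiation against EC20 glutamate, glutamate given with compound.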
# T1 sequence (P31424 21-1171 isoform P31424-2 limits assumed): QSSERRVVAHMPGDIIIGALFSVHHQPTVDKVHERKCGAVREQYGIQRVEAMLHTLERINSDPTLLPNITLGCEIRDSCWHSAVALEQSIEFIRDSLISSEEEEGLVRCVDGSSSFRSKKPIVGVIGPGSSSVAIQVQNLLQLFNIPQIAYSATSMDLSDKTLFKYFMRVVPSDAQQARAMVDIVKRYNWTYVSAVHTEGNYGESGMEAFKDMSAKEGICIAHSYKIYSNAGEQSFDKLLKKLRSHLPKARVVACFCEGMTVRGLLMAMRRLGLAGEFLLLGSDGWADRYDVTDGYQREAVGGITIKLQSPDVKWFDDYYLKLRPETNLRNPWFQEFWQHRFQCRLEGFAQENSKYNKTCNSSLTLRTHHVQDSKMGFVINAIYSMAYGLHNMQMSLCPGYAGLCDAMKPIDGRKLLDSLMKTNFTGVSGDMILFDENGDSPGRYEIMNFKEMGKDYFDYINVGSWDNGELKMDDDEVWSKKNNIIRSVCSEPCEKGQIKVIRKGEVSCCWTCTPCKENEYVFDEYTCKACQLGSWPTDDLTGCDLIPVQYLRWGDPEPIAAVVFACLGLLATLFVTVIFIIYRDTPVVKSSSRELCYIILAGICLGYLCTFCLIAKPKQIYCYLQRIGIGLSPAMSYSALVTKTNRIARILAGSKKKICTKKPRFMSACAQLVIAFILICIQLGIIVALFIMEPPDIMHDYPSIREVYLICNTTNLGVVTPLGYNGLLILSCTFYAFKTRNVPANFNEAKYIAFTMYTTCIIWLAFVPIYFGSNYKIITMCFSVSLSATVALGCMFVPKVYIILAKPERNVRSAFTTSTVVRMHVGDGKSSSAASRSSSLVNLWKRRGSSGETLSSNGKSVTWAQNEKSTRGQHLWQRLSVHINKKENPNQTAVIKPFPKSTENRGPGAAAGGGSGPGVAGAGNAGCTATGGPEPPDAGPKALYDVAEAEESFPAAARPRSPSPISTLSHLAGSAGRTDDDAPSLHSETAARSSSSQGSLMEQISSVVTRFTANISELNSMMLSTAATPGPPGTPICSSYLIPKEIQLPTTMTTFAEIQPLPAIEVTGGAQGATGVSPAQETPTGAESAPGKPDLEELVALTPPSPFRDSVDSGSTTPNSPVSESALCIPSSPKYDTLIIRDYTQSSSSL
row,Emax,Structure (SMILES)
1,63 to 99%,"Cc1cccc(C(=O)NC23CC4CC(C2)CC(NC(=O)c2cccc(N(C)CCCN(C)C)n2)(C4)C3)n1 [Example 233, 6-[(3-Dimethylamino-propyl)-methyl-amino]-pyridine-2-carboxylic acid {3-[(6-methyl-pyridine-2-carbonyl)-amino]-adamantan-1-yl}-amide]"
2,63 to 99%,"Cc1cccc2nc(C(=O)NC34CC5CC(CC(NC(=O)c6ccccn6)(C5)C3)C4)cn12 [Example 92, 5-Methyl-imidazo[1,2-a]pyridine-2-carboxylic acid {3-[(pyridine-2-carbonyl)-amino]-adamantan-1-yl}-amide]"
3,63 to 99%,"Cc1cccc(C(=O)NC23CC4CC(C2)CC(NC(=O)c2cccc(CC#N)n2)(C4)C3)n1 [Example 25, 6-Cyanomethyl-pyridine-2-carboxylic acid {3-[(6-methyl-pyridine-2-carbonyl)-amino]-adamantan-1-yl}-amide]"
4,63 to 99%,"Cc1cncc(C(=O)NC23CC4CC(C2)CC(NC(=O)c2ncccc2C)(C4)C3)n1 [Example 168, 6-Methyl-pyrazine-2-carboxylic acid {3-[(3-methyl-pyridine-2-carbonyl)-amino]-adamantan-1-yl}-amide]"
5,63 to 99%,"Cc1cccc(C(=O)NC23CC4CC(C2)CC(NC(=O)c2cn5c(C)cccc5n2)(C4)C3)n1 [Example 55, 5-Methyl-imidazo[1,2-a]pyridine-2-carboxylic acid {3-[(6-methyl-pyridine-2-carbonyl)-amino]-adamantan-1-yl}-amide]"
6,63 to 99%,"O=C(NC12CC3CC(C1)CC(NC(=O)c1cn4ccccc4n1)(C3)C2)c1ccccn1 [Example 88, Imidazo[1,2-a]pyridine-2-carboxylic acid {3-[(pyridine-2-carbonyl)-amino]-adamantan-1-yl}-amide]"
7,63 to 99%,"O=C(NC12CC3CC(C1)CC(NC(=O)c1ccccn1)(C3)C2)c1ccccc1 [Example 71, Pyridine-2-carboxylic acid (3-benzoylamino-adamantan-1-yl)-amide]"
8,63 to 99%,"Cc1cncc(C(=O)NC23CC4CC(C2)CC(NC(=O)c2nccc(C(F)(F)F)n2)(C4)C3)n1 [Example 181, 4-Trifluoromethyl-pyrimidine-2-carboxylic acid {3-[(6-methyl-pyrazine-2-carbonyl)-amino]-adamantan-1-yl}-amide]"
9,70 to 99%,"COc1cccc(C(=O)NC23CC4CC(CC(NC(=O)c5cncc(C)n5)(C4)C2)C3)n1 [Example 151, 6-Methyl-pyrazine-2-carboxylic acid {3-[(6-methoxy-pyridine-2-carbonyl)-amino]-adamantan-1-yl}-amide]"
10,70 to 99%,"Cc1cccc(C(=O)NC23CC4CC(C2)CC(NC(=O)c2ccc5cnccc5n2)(C4)C3)n1 [Example 123, [1,6]Naphthyridine-2-carboxylic acid {3-[(6-methyl-pyridine-2-carbonyl)-amino]-adamantan-1-yl}-amide]"
11,63 to 99%,"COCCN(C)c1cccc(C(=O)NC23CC4CC(CC(NC(=O)c5cccc(F)c5)(C4)C2)C3)n1 [Example 246, 6-[(2-Methoxy-ethyl)-methyl-amino]-pyridine-2-carboxylic acid [3-(3-fluoro-benzoylamino)-adamantan-1-yl]-amide]"
12,63 to 99%,"NC(=O)[C@@H]1CCCN1c1cccc(C(=O)NC23CC4CC(CC(NC(=O)c5cccc(F)c5)(C4)C2)C3)n1 [Example 251, 6-((S)-2-Carbamoyl-pyrrolidin-1-yl)-pyridine-2-carboxylic acid [3-(3-fluoro-benzoylamino)-adamantan-1-yl]-amide]"
13,63 to 99%,"CN(C)CCN(C)c1cccc(C(=O)NC23CC4CC(CC(NC(=O)c5ccccn5)(C4)C2)C3)n1 [Example 227, 6-[(2-Dimethylamino-ethyl)-methyl-amino]-pyridine-2-carboxylic acid {3-[(pyridine-2-carbonyl)-amino]-adamantan-1-yl}-amide]"
14,63 to 99%,"O=C(NC12CC3CC(C1)CC(NC(=O)c1nccc(C(F)(F)F)n1)(C3)C2)c1cccc(F)c1 [Example 184, 4-Trifluoromethyl-pyrimidine-2-carboxylic acid [3-(3-fluoro-benzoylamino)-adamantan-1-yl]-amide]"
15,63 to 99%,"O=C(NC12CC3CC(C1)CC(NC(=O)c1cccc(-n4ccnc4)n1)(C3)C2)c1ccccn1 [Example 253, 6-Imidazol-1-yl-pyridine-2-carboxylic acid {3-[(pyridine-2-carbonyl)-amino]-adamantan-1-yl}-amide]"
16,70 to 99%,"Cc1cc(F)cc(C(=O)NC23CC4CC(C2)CC(NC(=O)c2cncc(C)n2)(C4)C3)c1 [Example 158, 6-Methyl-pyrazine-2-carboxylic acid [3-(3-fluoro-5-methyl-benzoylamino)-adamantan-1-yl]-amide]"
17,63 to 99%,"Cc1cccc(C(=O)NC23CC4CC(C2)CC(NC(=O)c2cccc(N(C)CCO)n2)(C4)C3)n1 [Example 209, 6-[(2-Hydroxy-ethyl)-methyl-amino]-pyridine-2-carboxylic acid {3-[(6-methyl-pyridine-2-carbonyl)-amino]-adamantan-1-yl}-amide]"

row,Emax,Structure (SMILES)
1,63 to 99%,"Cc1cccc(C(=O)NC23CC4CC(CC(NC(=O)c5cccc(C#N)c5)(C4)C2)C3)n1 [Example 32, 6-Methyl-pyridine-2-carboxylic acid [3-(3-cyano-benzoylamino)-adamantan-1-yl]-amide]"
2,63 to 99%,"Cc1cncc(C(=O)NC23CC4CC(CC(NC(=O)c5cc(F)ccn5)(C4)C2)C3)n1 [Example 171, 6-Methyl-pyrazine-2-carboxylic acid {3-[(4-fluoro-pyridine-2-carbonyl)-amino]-adamantan-1-yl}-amide]"
3,63 to 99%,"CC(=O)NCCNc1cccc(C(=O)NC23CC4CC(CC(NC(=O)c5ccccn5)(C4)C2)C3)n1 [Example 223, 6-(2-Acetylamino-ethylamino)-pyridine-2-carboxylic acid {3-[(pyridine-2-carbonyl)-amino]-adamantan-1-yl}-amide]"
4,63 to 99%,"O=C(NC12CC3CC(C1)CC(NC(=O)c1cccc(F)c1)(C3)C2)c1cccc(F)c1 [Example 15, N,N′-(1,3-adamantylene)bis(3-fluorobenzamide)]"
5,63 to 99%,"NC(=O)CCNc1cccc(C(=O)NC23CC4CC(CC(NC(=O)c5cccc(F)c5)(C4)C2)C3)n1 [Example 252, 6-(2-Carbamoyl-ethylamino)-pyridine-2-carboxylic acid [3-(3-fluoro-benzoylamino)-adamantan-1-yl]-amide]"
6,70 to 99%,"Cc1cc(C(=O)NC23CC4CC(CC(NC(=O)c5ccccn5)(C4)C2)C3)nn1C [Example 109, Pyridine-2-carboxylic acid {3-[(1,5-dimethyl-1H-pyrazole-3-carbonyl)-amino]-adamantan-1-yl}-amide]"
7,63 to 99%,"Cc1cncc(C(=O)NC23CC4CC(C2)CC(NC(=O)c2cccc(F)n2)(C4)C3)n1 [Example 164, 6-Methyl-pyrazine-2-carboxylic acid {3-[(6-fluoro-pyridine-2-carbonyl)-amino]-adamantan-1-yl}-amide]"
8,63 to 99%,"O=C(NC12CC3CC(C1)CC(NC(=O)c1cccc(N4CCC(O)CC4)n1)(C3)C2)c1cccc(F)c1 [Example 218, 4-Hydroxy-3,4,5,6-tetrahydro-2H-[1,2′]-bipyridinyl-6′-carboxylic acid [3-(3-fluoro-benzoylamino)-adamantan-1-yl]-amide]"
9,63 to 99%,"CN(C)CCCN(C)c1cccc(C(=O)NC23CC4CC(CC(NC(=O)c5ccccn5)(C4)C2)C3)n1 [Example 221, 6-[(3-Dimethylamino-propyl)-methyl-amino]-pyridine-2-carboxylic acid {3-[(pyridine-2-carbonyl)-amino]-adamantan-1-yl}-amide]"
10,63 to 99%,"Cc1cccc(C(=O)NC23CC4CC(C2)CC(NC(=O)c2cccc(NCCC(N)=O)n2)(C4)C3)n1 [Example 240, 6-(2-Carbamoyl-ethylamino)-pyridine-2-carboxylic acid (3-[(6-methyl-pyridine-2-carbonyl)-amino]-adamantan-1-yl}-amide]"
11,63 to 99%,"Cc1cc(C(=O)NC23CC4CC(CC(NC(=O)c5ccccn5)(C4)C2)C3)on1 [Example 78, Pyridine-2-carboxylic acid {3-[(3-methyl-isoxazole-5-carbonyl)-amino]-adamantan-1-yl}-amide]"
12,63 to 99%,"Cc1cccc(C(=O)NC23CC4CC(C2)CC(NC(=O)c2cccc(NCCN(C)C)n2)(C4)C3)n1 [Example 232, 6-(2-Dimethylamino-ethylamino)-pyridine-2-carboxylic acid {3-[(6-methyl-pyridine-2-carbonyl)-amino]-adamantan-1-yl}-amide]"
13,63 to 99%,"CC(C)(C)OC(=O)N1CCc2cc(C(=O)NC34CC5CC(C3)CC(NC(=O)c3ccccn3)(C5)C4)ccc2C1 [Example 70, 6-{3-[(Pyridine-2-carbonyl)-amino]-adamantan-1-yl-carbamoyl}-3,4-dihydro-1H-isoquinoline-2-carboxylic acid tert-butyl ester]"
14,63 to 99%,"Cc1cccc(C(=O)NC23CC4CC(C2)CC(NC(=O)c2scc5c2OCCO5)(C4)C3)n1 [Example 38, 6-Methyl-pyridine-2-carboxylic acid {3-[(2,3-dihydro-thieno[3,4-b][1,4]dioxine-5-carbonyl)-amino]-adamantan-1-yl}-amide]"
15,63 to 99%,"Cc1cncc(C(=O)NC23CC4CC(C2)CC(NC(=O)c2cncc(C)n2)(C4)C3)c1 [Example 165, 6-Methyl-pyrazine-2-carboxylic acid {3-[(5-methyl-pyridine-3-carbonyl)-amino]-adamantan-1-yl}-amide]"
16,63 to 99%,"Cc1cncc(C(=O)NC23CC4CC(CC(NC(=O)c5ccc(F)c(C)c5)(C4)C2)C3)n1 [Example 166, 6-Methyl-pyrazine-2-carboxylic acid [3-(4-fluoro-3-methyl-benzoylamino)-adamantan-1-yl]-amide]"
